How the values were obtained:
Assay type in all cases: biochemical
Trypsin = test: Dose response assay for protease inhibitors: trypsin; conditions: selectivity, trypsin over Factor XIa
Experimental: (§1) • Assay buffer: 20 mM Hepes, pH 7.4; 150 mM NaCl; 0.02% Tween 20 • Compounds: 10 mM stocks in DMSO • Substrate: 20 mM Glp-Pro-Arg-AMC, 25 mg/2.3 mL H2O (store at +4° C.) [Factor XIa, thrombin, and trypsin] • 20 mM Pro-Phe-Arg-AMC (Bachem I-1295), 25 mg/2.2 mL H2O • or Boc-Leu-Gly-Arg-AMC (Bachem I-1105), 25 mg/2.07 mL H2O • (store at +4° C.) [Factor Xa] • Enzyme: Factor XIa; 0.25 μM in 50% glycerol (20 μg/mL) • Trypsin; 0.2 μM in 50% glycerol (4.8 μg/mL) • Thrombin; 0.2 μM in 50% glycerol (7.34 μg/mL) • Factor Xa; 0.2 μM in 50% glycerol (9.2 μg/mL) • These stocks are aliquoted (˜100 μL/aliquot) and stored at −20° C. Methods: • 1. Dilute the substrate to 100 μM in assay buffer (30 μL/6 mL). The enzyme is diluted to 0.5 nM just prior to use (12 μL/6 mL for Factor XIa; 15 μL/6 mL for all of the rest.) • 2. Pipette 50 μL of substrate into each well of the 96 well (12×8) microtiter plate. (Column 1 is used as the 100% activity control and receives no compound, and Column 12 is the blank and receives no enzyme.) Add an additional 46 μL to column 2. • 3. Pipette 4 μL of each compound into the appropriate well in column 2 of the plate (unknowns assayed in triplicate, standard assayed in duplicate). The final compound concentration will be […] of the stock. • 4. Serially two-fold dilute the compound by mixing the sample in column 2, removing 50 μL to the next well (column 3), mix and remove to column 4, etc. until column 11. After mixing column 11, remove 50 μL and discard. • 5. Pipette 50 μL of buffer into column 12. Initiate the reaction by adding 50 μL of enzyme solution to each well of columns 1-11 as rapidly as possible. • 6. Read the plate in a spectrophotometer (SpectraMax) at 30° C., wherein each well is measured every 60 s for 30 min. For Factor Xa assays, each well is measured every 1 min for a total of 60 min. • 7. For Factor XIa assays, the compounds are assayed, in duplicate, at 3 different starting concentrations, 20, 2, and 0.2 μM; 1:10, 1:100, and 1:1000 dilution of 10 mM stock or at 2, 0.2, and 0.02 μM; 1:100, 1:1000, and 1:10,000 dilution of 10 mM stock. Data for each concentration are combined for graphing and data fitting. • 8. Data can be used both for estimation of IC50 and for estimation of Kon.

Thrombin = Thrombin (Homo sapiens (Human), UniProt P00734); test: Dose response assay for protease inhibitors: thrombin; conditions: selectivity, thrombin over Factor XIa
Experimental: as §1

Factor Xa = Factor Xa (Homo sapiens (Human), UniProt P00742); test: Dose response assay for protease inhibitors: Factor Xa; conditions: selectivity, Factor Xa over Factor XIa
Experimental: as §1

Factor XIa = Factor XIa (Homo sapiens (Human), UniProt P03951); test: Factor XIa enzyme inhibition assay (dose response, fluorogenic AMC substrate); conditions: read-out: hFXIa IC50
How it was run: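 Fluorogenic progress curves (30 min, 1-min reads, 30° C) were recorded for 0.25 nM FXIa cleaving 50 μM Glp-Pro-Arg-AMC in Hepes pH 7.4 buffer with NaCl and Tween 20. Compounds were serially two-fold diluted, and IC50 was fitted with a Hill equation.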

Sequence of Factor XIa (P03951 388-625): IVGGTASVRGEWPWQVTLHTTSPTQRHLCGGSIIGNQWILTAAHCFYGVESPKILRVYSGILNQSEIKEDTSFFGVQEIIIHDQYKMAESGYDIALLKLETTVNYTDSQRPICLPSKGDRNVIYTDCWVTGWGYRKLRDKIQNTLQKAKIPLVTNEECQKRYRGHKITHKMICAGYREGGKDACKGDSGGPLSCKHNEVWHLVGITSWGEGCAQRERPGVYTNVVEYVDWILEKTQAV
Sequence of Factor XIa (P03951 19-387 partner): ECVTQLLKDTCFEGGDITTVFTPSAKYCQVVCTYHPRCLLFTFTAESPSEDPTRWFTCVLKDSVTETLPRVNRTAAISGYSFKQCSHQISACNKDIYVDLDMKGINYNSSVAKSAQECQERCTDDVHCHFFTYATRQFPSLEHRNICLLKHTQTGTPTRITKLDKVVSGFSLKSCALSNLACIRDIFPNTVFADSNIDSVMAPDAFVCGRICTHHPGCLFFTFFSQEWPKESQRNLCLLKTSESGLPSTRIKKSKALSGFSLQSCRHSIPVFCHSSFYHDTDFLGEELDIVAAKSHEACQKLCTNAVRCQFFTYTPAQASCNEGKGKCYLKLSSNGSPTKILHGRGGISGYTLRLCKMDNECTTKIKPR
Sequence of Factor Xa (P00742 235-488): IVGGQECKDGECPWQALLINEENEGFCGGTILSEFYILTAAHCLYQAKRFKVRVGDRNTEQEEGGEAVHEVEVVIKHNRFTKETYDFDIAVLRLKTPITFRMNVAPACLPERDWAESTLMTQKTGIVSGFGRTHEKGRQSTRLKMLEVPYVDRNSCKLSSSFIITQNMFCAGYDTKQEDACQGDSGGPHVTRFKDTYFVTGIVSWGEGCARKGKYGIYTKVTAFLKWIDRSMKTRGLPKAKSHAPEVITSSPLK
Sequence of Factor Xa (P00742 41-179 partner): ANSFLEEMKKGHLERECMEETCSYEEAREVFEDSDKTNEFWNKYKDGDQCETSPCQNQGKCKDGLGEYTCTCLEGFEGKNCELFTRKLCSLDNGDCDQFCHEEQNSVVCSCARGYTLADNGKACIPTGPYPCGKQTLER

Row | IC50 (Factor XIa) [nM] | SMILES | also measured
1 | < 10 | CC[C@@H](NC(=O)N1C(=O)[C@H](Cc2cc(C)nc(N)c2)[C@H]1C(=O)N(C)c1ccnn1C)c1ccc(C)cc1 [Compound 1-154, (2S,3R)-3-((2-amino-6-methylpyridin-4-yl)methyl)-N2-(1-methyl-1H-pyrazol-5-yl)-N1-((R)-1-(4-methylphenyl)propyl)-N2-methyl-4-oxoazetidine-1,2-dicarboxamide] | –
2 | 10 to 100 | CN(C(=O)[C@@H]1[C@@H](Cc2ccnc(N)c2)C(=O)N1C(=O)NC(C1CCCCC1)C(F)(F)F)c1ccnn1C (stereo in doubt) [Compound 1-6, (2S,3R)-3-((2-aminopyridin-4-yl)methyl)-N2-(1-methyl-1H-pyrazol-5-yl)-N1-((R)-1-cyclohexyl-2,2,2-trifluoroethyl)-N2-methyl-4-oxoazetidine-1,2-dicarboxamide] | –
3 | 10 to 100 | CC[C@@H](NC(=O)N1C(=O)[C@H](Cc2ccnc(N)c2)[C@H]1C(=O)N(C)c1c(C)cnn1C)c1ccccc1 [Compound 1-78, (2S,3R)-3-((2-aminopyridin-4-yl)methyl)-N2-(1,4-dimethyl-1H-pyrazol-5-yl)-N1-((R)-1-phenylpropyl)-N2-methyl-4-oxoazetidine-1,2-dicarboxamide] | –
4 | < 10 | CC[C@@H](NC(=O)N1C(=O)[C@H](Cc2ccnc(N)c2)[C@H]1C(=O)N(C)c1ccnn1C)c1ccc(F)c(C)c1 [Compound 1-214, (2S,3R)-3-((2-aminopyridin-4-yl)methyl)-N2-(1-methyl-1H-pyrazol-5-yl)-N1-((R)-1-(4-fluoro-3-methylphenyl)propyl)-N2-methyl-4-oxoazetidine-1,2-dicarboxamide] | –
5 | < 10 | CC[C@@H](NC(=O)N1C(=O)[C@H](Cc2ccnc(N)c2)[C@H]1C(=O)N(C)c1nccn1C)c1ccc(F)c(F)c1F [Compound 1-210, (2S,3R)-3-((2-aminopyridin-4-yl)methyl)-N2-(1-methyl-1H-imidazol-2-yl)-N1-((R)-1-(2,3,4-trifluorophenyl)propyl)-N2-methyl-4-oxoazetidine-1,2-dicarboxamide] | –
6 | 10 to 100 | CC[C@@H](NC(=O)N1C(=O)[C@H](Cc2ccnc(N)c2)[C@H]1C(=O)N(C)c1ccn(C)n1)c1cccs1 [Compound 1-53, (2S,3R)-3-((2-aminopyridin-4-yl)methyl)-N2-(1-methyl-1H-pyrazol-3-yl)-N1-((R)-1-(thiophen-2-yl)propyl)-N2-methyl-4-oxoazetidine-1,2-dicarboxamide] | –
7 | < 10 | CC[C@@H](NC(=O)N1C(=O)[C@H](Cc2cc(C)nc(N)c2)[C@H]1C(=O)N(C)c1cnn(C)c1)c1ccc(C)cc1F [Compound 1-183, (2S,3R)-3-((2-amino-6-methylpyridin-4-yl)methyl)-N2-(1-methyl-1H-pyrazol-4-yl)-N1-((R)-1-(2-fluoro-4-methylphenyl)propyl)-N2-methyl-4-oxoazetidine-1,2-dicarboxamide] | –
8 | 10 to 100 | CC[C@@H](NC(=O)N1C(=O)[C@H](Cc2cc(C)nc(N)c2)[C@H]1C(=O)N(C)c1cnn(C)c1)c1ccc(F)cc1 [Compound 1-169, (2S,3R)-3-((2-amino-6-methylpyridin-4-yl)methyl)-N2-(1-methyl-1H-pyrazol-4-yl)-N1-((R)-1-(4-fluorophenyl)propyl)-N2-methyl-4-oxoazetidine-1,2-dicarboxamide] | –
9 | 10 to 100 | CC[C@@H](NC(=O)N1C(=O)[C@H](Cc2cc(C)nc(N)c2)[C@H]1C(=O)N(C)c1cnn(C)c1)c1ccc(F)cc1F [Compound 1-188, (2S,3R)-3-((2-amino-6-methylpyridin-4-yl)methyl)-N2-(1-methyl-1H-pyrazol-4-yl)-N1-((R)-1-(2,4-difluorophenyl)propyl)-N2-methyl-4-oxoazetidine-1,2-dicarboxamide] | –
10 | < 10 | CC[C@@H](NC(=O)N1C(=O)[C@H](Cc2ccnc(N)c2)[C@H]1C(=O)N(C)c1ccnn1C)c1cc(F)ccc1F [Compound 1-217, (2S,3R)-3-((2-aminopyridin-4-yl)methyl)-N2-(1-methyl-1H-pyrazol-5-yl)-N1-((R)-1-(2,5-difluorophenyl)propyl)-N2-methyl-4-oxoazetidine-1,2-dicarboxamide] | –

The remaining lines, values behind:

Row | SMILES | IC50 (Factor XIa) [nM] | also measured
11 | CC[C@@H](NC(=O)N1C(=O)[C@H](Cc2ccnc(N)c2)[C@H]1C(=O)N(C)c1cn(C)cn1)C1CCCCC1 [Compound 1-71, (2S,3R)-3-((2-aminopyridin-4-yl)methyl)-N2-(1-methyl-1H-imidazol-4-yl)-N1-((R)-1-cyclohexylpropyl)-N2-methyl-4-oxoazetidine-1,2-dicarboxamide] | < 10 | Ratio: Trypsin/FXIa (Trypsin): G (“G” indicates 1-100); Ratio: Thrombin/FXIa (Thrombin): G (“G” indicates 1-100); Ratio: FXa/FXIa (Factor Xa): I (“I” indicates > 500)
12 | CC[C@@H](NC(=O)N1C(=O)[C@H](Cc2cc(C)nc(N)c2)[C@H]1C(=O)N(C)c1cn(C)cn1)c1ccccc1 [Compound 1-52, (2S,3R)-3-((2-amino-6-methylpyridin-4-yl)methyl)-N2-(1-methyl-1H-imidazol-4-yl)-N1-((R)-1-phenylpropyl)-N2-methyl-4-oxoazetidine-1,2-dicarboxamide] | 10 to 100 | Ratio: Trypsin/FXIa (Trypsin): G (“G” indicates 1-100); Ratio: Thrombin/FXIa (Thrombin): G (“G” indicates 1-100); Ratio: FXa/FXIa (Factor Xa): H (“H” indicates 101-1000)
13 | CC[C@@H](NC(=O)N1C(=O)[C@H](Cc2ccnc(NC(=O)OC(C)(C)C)c2)[C@H]1C(=O)N(C)c1cnn(C)c1)c1cccc(Cl)c1 [Compound 1-23, (2S,3R)-3-((2-(((tert-butoxy)carbonyl)amino)pyridin-4-yl)methyl)-N2-(1-methyl-1H-pyrazol-4-yl)-N1-((R)-1-(3-chlorophenyl)propyl)-N2-methyl-4-oxoazetidine-1,2-dicarboxamide] | > 1000 | –
14 | CC[C@@H](NC(=O)N1C(=O)[C@H](Cc2cc(C)nc(N)c2)[C@H]1C(=O)N(C)c1nncs1)c1ccccc1 [Compound 1-186, (2S,3R)-3-((2-amino-6-methylpyridin-4-yl)methyl)-N2-(1,3,4-thiadiazol-2-yl)-N1-((R)-1-phenylpropyl)-N2-methyl-4-oxoazetidine-1,2-dicarboxamide] | < 10 | –
15 | CC[C@@H](NC(=O)N1C(=O)[C@H](Cc2cc(C)nc(N)c2)[C@H]1C(=O)N(C)c1ccn(C)n1)c1ccc(C)cc1 [Compound 1-142, (2S,3R)-3-((2-amino-6-methylpyridin-4-yl)methyl)-N2-(1-methyl-1H-pyrazol-3-yl)-N1-((R)-1-(4-methylphenyl)propyl)-N2-methyl-4-oxoazetidine-1,2-dicarboxamide] | < 10 | –
16 | CC[C@@H](NC(=O)N1C(=O)[C@H](Cc2cc(C)nc(NC)c2)[C@H]1C(=O)N(C)c1cnn(C)c1)c1ccccc1 [Compound 1-66, (2S,3R)-3-((2-methylamino-6-methylpyridin-4-yl)methyl)-N2-(1-methyl-1H-pyrazol-4-yl)-N1-((R)-1-phenylpropyl)-N2-methyl-4-oxoazetidine-1,2-dicarboxamide] | 10 to 100 | –
17 | Cc1cc(C[C@H]2C(=O)N(C(=O)NC(C3CCCCC3)C(F)(F)F)[C@@H]2C(=O)N(C)c2nccn2C)cc(N)n1 (stereo in doubt) [Compound 1-77, (2S,3R)-3-((2-amino-6-methylpyridin-4-yl)methyl)-N2-(1-methyl-1H-imidazol-2-yl)-N1-((R)-1-cyclohexyl-2,2,2-trifluoroethyl)-N2-methyl-4-oxoazetidine-1,2-dicarboxamide] | 10 to 100 | –
18 | CCNc1cc(C[C@H]2C(=O)N(C(=O)N[C@H](CC)c3cccc(Cl)c3)[C@@H]2C(=O)N(C)c2ccn(C)n2)ccn1 [Compound 1-39, (2S,3R)-3-((2-ethylaminopyridin-4-yl)methyl)-N2-(1-methyl-1H-pyrazol-3-yl)-N1-((R)-1-(3-chlorophenyl)propyl)-N2-methyl-4-oxoazetidine-1,2-dicarboxamide] | 10 to 100 | –

Source: patent US11691962B2 (eXIthera Pharmaceuticals, Inc., priority 2018, dated 2023)
